Each compound was assayed against mGlyT-1b (Mus musculus (Mouse), UniProt P28571) (assay: Glycine Uptake Inhibition Assay (mGlyT-1b)). Settings: [3H]-glycine uptake in Flp-in-CHO cells stably transfected with mGlyT1b cDNA; 20 min preincubation at 22° C.
Format: cell-based
Protocol: DMEM complete medium: Nutrient mixture F-12 (Gibco Life-technologies), fetal bovine serum (FBS) 5%, (Gibco life technologies), Penicillin/Streptomycin 1% (Gibco life technologies), Hygromycin 0.6 mg/ml (Gibco life technologies), Glutamine 1 mM Gibco life technologies)
Uptake buffer (UB): 150 mM NaCl, 10 mM Hepes-Tris, pH 7.4, 1 mM CaCl2, 2.5 mM KCl, 2.5 mM MgSO4, 10 mM (+) D-glucose.
Flp-in™-CHO (Invitrogen Cat no R758-07) cells stably transfected with mGlyT1b cDNA.
Glycine Uptake Inhibition Assay (mGlyT-1b)
On day 1 mammalian cells, (Flp-in™-CHO), transfected with mGlyT-1b cDNA, were plated at the density of 40,000 cells/well in complete F-12 medium, without hygromycin in 96-well culture plates. On day 2, the medium was aspirated and the cells were washed twice with uptake buffer (UB). The cells were then incubated for 20 min at 22° C. with either (i) no potential competitor, (ii) 10 mM non-radioactive glycine, (iii) a concentration of a potential inhibitor. A range of concentrations of the potential inhibitor was used to generate data for calculating the concentration of inhibitor resulting in 50% of the effect (e.g. IC50, the concentration of the competitor inhibiting glycine uptake of 50%). A solution was then immediately added containing [^3H]-glycine 60 nM (11-16 Ci/mmol) and 25 μM non-radioactive glycine. The plates were incubated with gentle shaking and the reaction was stopped by aspiration of the mixture and washing (three times) with ice-cold UB. The cells were lysed with scintillation liquid, shaken 3 hours and the radioactivity in the cells was counted using a scintillation counter.

Chain of mGlyT-1b (P28571 other isoform, or with tags, fused parts or gaps isoform P28571-2): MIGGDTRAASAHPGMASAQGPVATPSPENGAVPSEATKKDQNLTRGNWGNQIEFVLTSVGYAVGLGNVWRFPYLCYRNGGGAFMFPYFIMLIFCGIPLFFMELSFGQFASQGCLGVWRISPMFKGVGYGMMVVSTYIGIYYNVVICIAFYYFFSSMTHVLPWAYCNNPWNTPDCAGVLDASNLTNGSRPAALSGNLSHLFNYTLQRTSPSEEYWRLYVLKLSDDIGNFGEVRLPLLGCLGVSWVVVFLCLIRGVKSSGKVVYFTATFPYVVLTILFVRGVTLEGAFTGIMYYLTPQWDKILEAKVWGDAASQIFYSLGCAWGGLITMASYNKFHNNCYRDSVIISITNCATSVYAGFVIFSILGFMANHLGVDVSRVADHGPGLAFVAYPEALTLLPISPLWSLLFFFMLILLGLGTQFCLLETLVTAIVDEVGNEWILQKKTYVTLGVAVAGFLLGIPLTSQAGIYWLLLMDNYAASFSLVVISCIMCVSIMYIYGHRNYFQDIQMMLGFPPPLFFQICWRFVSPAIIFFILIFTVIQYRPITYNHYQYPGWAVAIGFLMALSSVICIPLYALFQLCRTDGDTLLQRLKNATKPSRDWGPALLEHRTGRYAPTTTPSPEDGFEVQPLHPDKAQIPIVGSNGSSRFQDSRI

SMILES | IC50
COc1cc(C(F)(F)F)cc(SC)c1C(=O)N[C@@H]1COCC[C@H]1NC1CCC(O)CC1 (mixture of isomers) [Example 33, N-[(3SR,4RS)-4-(4-Hydroxy-cyclohexylamino)-tetrahydro-pyran-3-yl]-2-methoxy-6-methylsulfanyl-4-trifluoromethyl-benzamide] | 0.751 µM
O=C(N[C@@H]1COCC[C@H]1N1CCC(O)CC1)c1ccc(C(F)(F)F)cc1C1CC1 (racemic) [Example 36] | 0.274 µM
COc1cc(C(F)(F)F)cc(SC)c1C(=O)N[C@@H]1CCOC[C@@H]1N1CCCC1 (relative stereo) [Example 63, cis-2-Methoxy-6-methylsulfanyl-N-(3-pyrrolidin-1-yl-tetrahydro-pyran-4-yl)-4-trifluoromethyl-benzamide] | 0.189 µM
COc1cc(C(F)(F)F)cc(SC)c1C(=O)N[C@H]1COCC[C@@H]1N1CCCC1 (single isomer, unassigned) [Example 5, (+)-2-Methoxy-6-methylsulfanyl-N-(4-pyrrolidin-1-yl-tetrahydro-pyran-3-yl)-4-trifluoromethyl-benzamide] | 0.118 µM
COc1cc(C(F)(F)F)cc(SC)c1C(=O)N[C@H]1COCC[C@@H]1N1CCCC1 (single isomer, unassigned) [Example 6, (−)-2-Methoxy-6-methylsulfanyl-N-(4-pyrrolidin-1-yl-tetrahydro-pyran-3-yl)-4-trifluoromethyl-benzamide] | 0.0284 µM
O=C(N[C@H]1COCC[C@@H]1NC1CCCC1)c1ccc(C(F)(F)F)cc1C1CC1 (stereo in doubt) [Example 43, (+)-N-(trans-4-Cyclopentylamino-tetrahydro-pyran-3-yl)-2-cyclopropyl-4-trifluoromethyl-benzamide] | 0.0788 µM
COc1cc(C(F)(F)F)cc(SC)c1C(=O)N[C@@H]1COCC[C@H]1N1C[C@H]2C[C@H]2C1 [Example 34, N-[(3S,4R)-4-(3-Aza-bicyclo[3.1.0]hex-3-yl)-tetra-hydro-pyran-3-yl]-2-methoxy-6-methylsulfanyl-4-trifluoromethyl-benzamide] | 0.11 µM
O=C(N[C@@H]1COCC[C@H]1N1C[C@H]2C[C@H]2C1)c1ccc(C(F)(F)F)cc1C1CC1 [Example 35, N-[(3S,4R)-4-(3-Aza-bicyclo[3.1.0]hex-3-yl)-tetra-hydro-pyran-3-yl]-2-cyclopropyl-4-trifluoromethyl-benzamide] | 0.0265 µM
O=C(N[C@@H]1COCC[C@H]1N1CCCC1)c1ccc(C(F)(F)F)cc1C1CC1 [Example 37, (+)-2-Cyclopropyl-N-(4-pyrrolidin-1-yl-tetrahydro-pyran-3-yl)-4-trifluoromethyl-benzamide] | 0.0834 µM
O=C(N[C@H]1COCC[C@@H]1N1CCCC1)c1ccc(C(F)(F)F)cc1C1CC1 [Example 38, (−)-2-Cyclopropyl-N-(4-pyrrolidin-1-yl-tetrahydro-pyran-3-yl)-4-trifluoromethyl-benzamide] | 0.0834 µM
Cc1cc(C(F)(F)F)cc(C(F)(F)F)c1C(=O)N[C@H]1COCC[C@@H]1N1CCCC1 [Example 39, (+)-2-Methyl-N-trans-(4-pyrrolidin-1-yl-tetrahydro-pyran-3-yl)-4,6-bis-trifluoro-methyl-benzamide] | 0.0439 µM
Cc1cc(C(F)(F)F)cc(C(F)(F)F)c1C(=O)N[C@@H]1COCC[C@H]1N1CCCC1 [Example 40, (−)-2-Methyl-N-trans-(4-pyrrolidin-1-yl-tetrahydro-pyran-3-yl)-4,6-bis-trifluoromethyl-benzamide] | 0.0955 µM
CSc1cc(C(F)(F)F)cc(C(F)(F)F)c1C(=O)N[C@H]1COCC[C@@H]1N1CCCC1 [Example 41, (+)-2-Methylsulfanyl-N-trans-(4-pyrrolidin-1-yl-tetrahydro-pyran-3-yl)-4,6-bis-trifluoromethyl-benzamide] | 0.0447 µM
CSc1cc(C(F)(F)F)cc(C(F)(F)F)c1C(=O)N[C@@H]1COCC[C@H]1N1CCCC1 [Example 42, (−)-2-Methylsulfanyl-N-trans-(4-pyrrolidin-1-yl-tetrahydro-pyran-3-yl)-4,6-bis-trifluoromethyl-benzamide] | 0.027 µM
O=C(N[C@@H]1COCC[C@H]1NC1CCCC1)c1ccc(C(F)(F)F)cc1C1CC1 [Example 44, (−)-N-(trans-4-Cyclopentylamino-tetrahydro-pyran-3-yl)-2-cyclopropyl-4-trifluoromethyl-benzamide] | 0.299 µM
COc1cc(C(F)(F)F)cc(SC)c1C(=O)N[C@H]1COCC[C@@H]1NC1CCCC1 [Example 45, (+)-N-(4-Cyclopentylamino-tetrahydro-pyran-3-yl)-2-methoxy-6-methylsulfanyl-4-trifluoromethyl-benzamide] | 0.111 µM

SMILES | IC50
COc1cc(C(F)(F)F)cc(SC)c1C(=O)N[C@@H]1COCC[C@H]1NC1CCCC1 [Example 46, (−)-N-(4-Cyclopentylamino-tetrahydro-pyran-3-yl)-2-methoxy-6-methylsulfanyl-4-trifluoromethyl-benzamide] | 0.158 µM
O=C(N[C@H]1COCC[C@@H]1N1CCCC1)c1c(C2CC2)cc(C(F)(F)F)cc1C(F)(F)F [Example 47, (+)-2-Cyclopropyl-N-(4-pyrrolidin-1-yl-tetrahydro-pyran-3-yl)-4,6-bis-trifluoromethyl-benzamide] | 0.016 µM
O=C(N[C@@H]1COCC[C@H]1N1CCCC1)c1c(C2CC2)cc(C(F)(F)F)cc1C(F)(F)F [Example 48, (−)-2-Cyclopropyl-N-(4-pyrrolidin-1-yl-tetrahydro-pyran-3-yl)-4,6-bis-trifluoromethyl-benzamide] | 0.02 µM
O=C(N[C@@H]1COCC[C@H]1NC1CCCCC1)c1ccc(C(F)(F)F)cc1C1CC1 [Example 49] | 0.34 µM
O=C(N[C@H]1COCC[C@@H]1NC1CCCCC1)c1ccc(C(F)(F)F)cc1C1CC1 [Example 50] | 0.057 µM
Cc1cc(C(F)(F)F)cc(C)c1C(=O)N[C@H]1COCC[C@@H]1N1CCCC1 [Example 51] | 0.0253 µM
Cc1cc(C(F)(F)F)cc(C)c1C(=O)N[C@@H]1COCC[C@H]1N1CCCC1 [Example 52] | 0.0341 µM
COc1cc(C(F)(F)F)cc(C)c1C(=O)N[C@H]1COCC[C@@H]1N1CCCC1 [Example 53, (+)-2-Methoxy-6-methyl-N-(4-pyrrolidin-1-yl-tetrahydro-pyran-3-yl)-4-trifluoromethyl-benzamide] | 0.0782 µM
COc1cc(C(F)(F)F)cc(C)c1C(=O)N[C@@H]1COCC[C@H]1N1CCCC1 [Example 54] | 0.0338 µM
CCc1cc(C(F)(F)F)cc(OC)c1C(=O)N[C@H]1COCC[C@@H]1N1CCCC1 [Example 55] | 0.0483 µM
CCc1cc(C(F)(F)F)cc(OC)c1C(=O)N[C@@H]1COCC[C@H]1N1CCCC1 [Example 56, (−)-2-Ethyl-6-methoxy-N-(4-pyrrolidin-1-yl-tetrahydro-pyran-3-yl)-4-trifluoro-methyl-benzamide] | 0.0155 µM
COc1cc(C(F)(F)F)cc(C2CC2)c1C(=O)N[C@H]1COCC[C@@H]1N1CCCC1 [Example 57] | 0.0625 µM
COc1cc(C(F)(F)F)cc(C2CC2)c1C(=O)N[C@@H]1COCC[C@H]1N1CCCC1 [Example 58] | 0.0076 µM
COc1cc(C(F)(F)F)cc(SC)c1C(=O)N[C@H]1CCOC[C@H]1N1CCCC1 [Example 64, (−)-2-Methoxy-6-methylsulfanyl-N-(3-pyrrolidin-1-yl-tetrahydro-pyran-4-yl)-4-trifluoro-methyl-benzamide] | 0.189 µM
COc1cc(C(F)(F)F)cc(SC)c1C(=O)N[C@@H]1CCOC[C@@H]1N1CCCC1 [Example 65, (+)-2-Methoxy-6-methylsulfanyl-N-(3-pyrrolidin-1-yl-tetrahydro-pyran-4-yl)-4-trifluoro-methyl-benzamide] | 0.119 µM

— US8524909B2, “Tetrahydro-pyran derivatives” (Hoffmann-La Roche Inc., priority 2010, dated 2013)
